Data on 16 molecules can be found in patent US20090093454A1, “Chemical Compounds” (priority 2005, published 2009).

For one assay, the target named is T1, human CXCR4 (Homo sapiens, UniProt P61073).
T1 construct: expressed in transfected cells; host or cells: HEK-293 cells (stably expressing human macrophage scavenging receptor) transduced with human CXCR4 BacMam and Gqi5 BacMam baculovirus
The assay is described as follows: Functional FLIPR assay (block of SDF-1 alpha calcium response). The note with it: HEK-293 cells with human CXCR4 and Gqi5 BacMam; antagonism of SDF-1 alpha [Ca2+]i change; read-out: Functional assay (pIC50) (converted). It is filed as cell-based. The method, then:
Human embryonic kidney (HEK-293) cells were maintained and harvested as described above. Cells were plated in 96-well, black clear bottom, poly-lysine coated plates at a concentration of 40,000 cells per well in a final volume of 100 ul containing human CXCR4BacMam (MOI=25) and Gqi5 BacMam (MOI=12.5). The cells were incubated at 37° C., 5% CO2, 95% humidity for 24 h to allow for protein expression.
After the required incubation time the cells were washed once with 50 ul of fresh serum-free DMEM/F12 media containing probenicid. 50 ul of dye solution was then added to the cells (Calcium Plus Assay Kit Dye; Molecular Devices) was dissolved in 200 ml of the above probenicid/BSA containing media and incubated for 1 h. Cell plates were transferred to a Fluorometric Imaging Plate Reader (FLIPR). Upon addition the effect of the compounds on the change in [Ca^2+]i was examined to determine if the compounds were agonists or antagonists (ability to block SDF-1 alpha activity) at the CXCR4 receptor. IC50 values are determined and pKb values are calculated using the Leff and Dougall equation: KB=IC50/((2+([agonist]/EC50̂b) ̂1/b−1) Where IC50 is that defined by the antagonist concentration-response curve [agonist] is the EC80 concentration of agonist used EC50 is that defined by the agonist concentration-response curve b is the slope of the agonist concentration-response curve.

In another assay the test system is HIV-1 IIIB. Briefly: HOS HIV-1 infectivity assay, IIIB strain. The class given is cell-based. Particulars: 96 h. As for the experimental part:
Compounds were profiled against two HIV-1 viruses, the M-tropic (CCR5 utilizing) Ba-L strain and the T-tropic (CXCR4 utilizing) IIIB strain. Both viruses were propagated in human peripheral blood lymphocytes. Compounds were tested for there ability to block infection of the HOS cell line (expressing hCXCR4/hCCR5/hCD4/pHIV-LTR-luciferase) by either HIV-1 Ba-L or HIV-1, IIIB. Compound cytotoxicity was also examined in the absence of virus addition.
HOS cells (expressing hCXCR4/hCCR5/hCD4/pHIV-LTR-luciferase) were harvested and diluted in Dulbeccos modified Eagles media supplemented with 2% FCS and non-essential amino acid to a concentration of 60,000 cells/ml. The cells were plated into 96-well plates (100 ul per well) and the plates were placed in a tissue culture incubator (37° C.; 5% CO2/95% air) for a period of 24 h.
Subsequently, 50 ul of the desired drug solution (4 times the final concentration) was added to each well and the plates were returned to the tissue culture incubator (37° C.; 5% CO2/95% air) for 1 h. Following this incubation 50 ul of diluted virus was added to each well (approximately 2 million RLU per well of virus). The plates were returned to the tissue culture incubator (37° C.; 5% CO2/95% air) and were incubated for a further 96 h.
Following this incubation the endpoint for the virally infected cultures was quantified following addition of Steady-Glo Luciferase assay system reagent (Promega, Madison, Wis.). Cell viability or non-infected cultures was measured using a CellTiter-Glo luminescent cell viability assay system (Promega, Madison, Wis.). All luminescent readouts are performed on a Topcount luminescence detector (Packard, Meridien, Conn.).
Compounds were profiled against two HIV-1 viruses, the M-tropic (CCR5 utilizing) Ba-L strain and the T-tropic (CXCR4 utilizing) IIIB strain. Ba-L was propagated in either peripheral blood lymphocytes or SupT1/CCR5+/CXCR4+ cells. IIIB was propagated in peripheral blood lymphocytes. Compounds were tested for their ability to block infection of the HOS cell line (expressing hCXCR4/hCCR5/hCD4/pHIV-LTR-luciferase) by either HIV-1 Ba-L or HIV-1, IIIB. Compound cytotoxicity was also examined in the absence of virus addition.
HOS cells (expressing hCXCR4/hCCR5/hCD4/pHIV-LTR-luciferase) were harvested and diluted in Dulbeccos modified Eagles media supplemented with 2% FCS to a concentration of 120,000 cells/ml. The cells were plated into 96-well plates (50 μl per well) and the plates were placed in a tissue culture incubator (370° C.; 5% CO2/95% air) for a period of 24 h.
Subsequently, 50 μl of the desired drug solution (2 times the final concentration) was added to each well and the plates were returned to the tissue culture incubator (370° C.; 5% CO2/95% air) for 1 h. Following this incubation, 60 μl of diluted virus (4 times the final concentration) was added to 60 μl of 2× the final desired concentration of the compound and 100 μl of this compound/virus mix was added to each well (approximately 2 million RLU per well of virus). The plates were returned to the tissue culture incubator (370° C.; 5% CO2/95% air) and were incubated for a further 96 h.

[1] abbreviates: Human immunodeficiency virus 1, T-tropic (CXCR4 utilizing) IIIB strain, HOS cells, luciferase, read-out: HOS (3B).
Setting [2] is: Human immunodeficiency virus 1, IIIB, HOS, read-out: HOS (3B) (μM).

Each structure is given as a SMILES string. Structures can show the parent of a compound that is named as a salt. Where two headings read alike, the source gives them in different places.

T1 sequence (P61073 whole entry): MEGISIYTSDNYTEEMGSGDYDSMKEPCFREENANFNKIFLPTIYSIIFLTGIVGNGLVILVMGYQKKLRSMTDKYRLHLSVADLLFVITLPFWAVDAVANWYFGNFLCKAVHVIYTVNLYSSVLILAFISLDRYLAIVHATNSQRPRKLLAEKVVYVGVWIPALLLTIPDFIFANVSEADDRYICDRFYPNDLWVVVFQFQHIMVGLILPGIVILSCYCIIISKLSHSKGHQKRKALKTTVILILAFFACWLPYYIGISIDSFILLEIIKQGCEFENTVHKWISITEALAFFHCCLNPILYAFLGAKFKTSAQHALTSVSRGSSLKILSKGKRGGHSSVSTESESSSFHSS

For the molecule `CN1CCN(c2cccc3nc(CN4CCC[C@@H]5CCc6cccnc6[C@@H]54)cn23)CC1` [Example 22, (4aS,10bR)-1-{[5-(4-Methyl-1-piperazinyl)imidazo[1,2-a]pyridin-2-yl]methyl}-1,2,3,4,4a,5,6,10b-octahydro-1,10-phenanthroline], the IC50 at human CXCR4 is 31.6 nM; in the assay with HIV-1 IIIB (setting [1]) it was 0.1 µM.
Turning to `CN(C)CCCn1c(CN2CCC[C@@H]3CCc4cccnc4[C@@H]32)nc2ccccc21` [Example 11A, (3-{2-[(4aS,10bR)-3,4,4a,5,6,10b-Hexahydro-1,10-phenanthrolin-1(2H)-ylmethyl]-1H-benzimidazol-1-yl}propyl)dimethylamine], the figures for the IC50 at human CXCR4 and with HIV-1 IIIB (setting [1]) were 851 nM and 0.53 µM, respectively.
On to `CN1CCN(c2cccc3nc(CN4CCC[C@H]5CCc6cccnc6[C@H]54)cn23)CC1` [Example 27, (4aR,10bS)-1-{[5-(4-Methyl-1-piperazinyl)imidazo[1,2-a]pyridin-2-yl]methyl}-1,2,3,4,4a,5,6,10b-octahydro-1,10-phenanthroline], for which the IC50 at human CXCR4 is 1.26 nM; with HIV-1 IIIB (setting [1]), 0.004 µM.
`CN1CCN(c2cccc3[nH]c(CN4CCC[C@@H]5CCc6cccnc6[C@H]54)nc23)CC1` (racemic) [Example 32, (trans)-1-{[4-(4-Methyl-1-piperazinyl)-1H-benzimidazol-2-yl]methyl}-1,2,3,4,4a,5,6,10b-octahydro-1,10-phenanthroline trifluoroacetate]: the IC50 is 479 nM on human CXCR4 and 0.26 µM with HIV-1 IIIB (setting [1]).
For the molecule `NCCCn1c(CN2CCC[C@H]3CCc4cccnc4[C@H]32)nc2ccccc21` (racemic) [Example 9, (cis)-3-[2-(3,4,4a,5,6,10b-Hexahydro-1,10-phenanthrolin-1(2H)-ylmethyl)-1H-benzimidazol-1-yl]-1-propanamine], the IC50 was 19.5 nM on human CXCR4 and 0.073 µM in the assay on HIV-1 IIIB (setting [1]).
As for `CN(C)CCCn1c(CN2CCC[C@H]3CCc4cccnc4[C@H]32)nc2ccccc21` [Example 11B, (3-{2-[(4aR,10bS)-3,4,4a,5,6,10b-Hexahydro-1,10-phenanthrolin-1(2H)-ylmethyl]-1H-benzimidazol-1-yl}propyl)dimethylamine], the IC50 at human CXCR4 was 10.5 nM; in the assay with HIV-1 IIIB (setting [1]), 0.035 µM.
Turning to `c1cnc2c(c1)CC[C@H]1CCCN(Cc3nc4ccccc4[nH]3)[C@H]21` (racemic) [Example 6, (trans)-1-(1H-Benzimidazol-2-ylmethyl)-1,2,3,4,4a,5,6,10b-octahydro-1,10-phenanthroline], the IC50 on human CXCR4 is 126 nM; in the assay with HIV-1 IIIB (setting [2]), 0.47 µM.
Regarding `CN1CCCC(Cn2c(CN3CCC[C@H]4CCc5cccnc5[C@H]43)nc3ccccc32)C1` (mixture of isomers) [Example 13, (cis)-1-({1-[(1-Methyl-3-piperidinyl)methyl]-1H-benzimidazol-2-yl}methyl)-1,2,3,4,4a,5,6,10b-octahydro-1,10-phenanthroline], the IC50 was 7.59 nM on human CXCR4 and 0.05 µM in the assay with HIV-1 IIIB (setting [1]).
Turning to `CN(C)CCCn1c(CN2CCC[C@H]3CCc4cccnc4[C@@H]32)nc2ccccc21` (stereo in doubt) [Example 10A, (3-{2-[(4aR,10bR)-3,4,4a,5,6,10b-Hexahydro-1,10-phenanthrolin-1(2H)-ylmethyl]-1H-benzimidazol-1-yl}propyl)dimethylamine], the values for the IC50 on human CXCR4 and in the assay on HIV-1 IIIB (setting [1]) were 182 nM and 0.33 µM, respectively.
As to `CN1CCN(c2cccc3nc(CN4CCC[C@H]5CCc6cccnc6[C@H]54)[nH]c23)CC1` (racemic) [Example 33, (cis)-1-{[4-(4-Methyl-1-piperazinyl)-1H-benzimidazol-2-yl]methyl}-1,2,3,4,4a,5,6,10b-octahydro-1,10-phenanthroline], the IC50 was 2.4 nM at human CXCR4 and 0.0035 µM in the assay on HIV-1 IIIB (setting [1]).
In the same order, the values of `CN(C)CCCn1c(CN2CCC[C@@H]3CCc4cccnc4[C@H]32)nc2ccccc21` (stereo in doubt) [Example 10B, (3-{2-[(4aS,10bS)-3,4,4a,5,6,10b-Hexahydro-1,10-phenanthrolin-1(2H)-ylmethyl]-1H-benzimidazol-1-yl}propyl)dimethylamine] are 93.3 nM and 0.14 µM.
`NCCCn1c(CN2CCC[C@@H]3CCc4cccnc4[C@H]32)nc2ccccc21` (racemic) [Example 8, (trans)-3-[2-(3,4,4a,5,6,10b-Hexahydro-1,10-phenanthrolin-1(2H)-ylmethyl)-1H-benzimidazol-1-yl]-1-propanamine]: the IC50 on human CXCR4 is 126 nM; in the assay on HIV-1 IIIB (setting [1]) it was 0.22 µM.
As to `c1cnc2c(c1)CC[C@@H]1CCCN(Cc3nc4ccccc4n3Cc3ccncc3)[C@H]21` (racemic) [Example 12, (cis)-1-{[1-(4-Pyridinylmethyl)-1H-benzimidazol-2-yl]methyl}-1,2,3,4,4a,5,6,10b-octahydro-1,10-phenanthroline], the IC50 is 1050 nM at human CXCR4 and 0.77 µM in the assay on HIV-1 IIIB (setting [1]).
With `c1cnc2c(c1)CC[C@@H]1CCCN(Cc3nc4ccccc4[nH]3)[C@H]21` (racemic) [Example 7, (cis)-1-(1H-Benzimidazol-2-ylmethyl)-1,2,3,4,4a,5,6,10b-octahydro-1,10-phenanthroline], the IC50 is 437 nM at human CXCR4 and 1 µM in the assay on HIV-1 IIIB (setting [2]).
For the molecule `CN1CCN(c2cccc3nc(CN4CCC[C@H]5CCc6cccnc6[C@H]54)cn23)CC1` (racemic) [Example 15B, (cis)-1-{[5-(4-Methyl-1-piperazinyl)imidazo[1,2-a]pyridin-2-yl]methyl}-1,2,3,4,4a,5,6,10b-octahydro-1,10-phenanthroline], the IC50 was 3.39 nM on human CXCR4 and 0.004 µM in the assay with HIV-1 IIIB (setting [1]).
As to `CN1CCN(c2cccc3nc(CN4CCC[C@@H]5CCc6cccnc6[C@H]54)cn23)CC1` (racemic) [Example 15A, (trans)-1-{[5-(4-Methyl-1-piperazinyl)imidazo[1,2-a]pyridin-2-yl]methyl}-1,2,3,4,4a,5,6,10b-octahydro-1,10-phenanthroline], the IC50 at human CXCR4 was 40.7 nM; with HIV-1 IIIB (setting [1]), 0.033 µM.
